According to patent publication US20050009776A1, “Method of treating atrial fibrillation or atrial flutter” (Aderis Pharmaceuticals, Inc., priority 2003, published 2005):

Assay: Example 2: safety (adverse events, blood pressure, clinical laboratory values)
Format: in vivo, human
Settings: for Diastolic BP Change from Baseline Post-treatment / Diastolic BP Change from Baseline Treatment / Systolic BP Change from Baseline Post-treatment / Systolic BP Change from Baseline Treatment: mean ± SD
Description: Each patient received 1 of 6 doses of DTI-0009 (0.25, 1.0, 2.5, 4.0, 10.0, or 25.0 μg/kg) diluted in normal saline or normal saline only (control). Study drug was administered as a 30-minute i.v. infusion at a rate of 1 mL/minute. Patients were enrolled in sequential dose groups, beginning with the lowest active dose group and continuing in increasing dose order; the final group received normal saline. The decision to proceed to the next highest dose group was based on the safety response in the previous dose group.
Electrophysiologic (EP), electrocardiogram (ECG), blood pressure measurements, and blood collection for clinical laboratory measurements were performed at baseline (−10 to 0 minutes), during treatment (between 20 and 30 minutes), and at 10 minutes post-treatment.
ECG measurements included PR interval, QRS complex duration, and QT interval. Efficacy was based on changes in EP and ECG parameters from baseline to the treatment period and to post treatment. Safety was based on the incidence of adverse events, blood pressure measurements, and clinical laboratory values.
The incidence of adverse events, blood pressure measurements, and clinical laboratory results were summarized by dose group. Adverse events were coded using the medical dictionary for regulatory activities (MedDRA version 3.0). Safety analyses included all patients who received any duration of study drug infusion.

## CCNC(=O)[C@H]1O[C@@H](n2cnc3c(NC4CCCC4)ncnc32)[C@H](O)[C@@H]1O [DTI-0009, N^6-cyclopentyl-5′-(N-ethyl)carboxamidoadenosine]
0.25 μg/kg (n = 10)
  Adverse Events Related to Study Drug: Cardiac Disorders (all): 0
  Adverse Events Related to Study Drug: General Disorders (all): 0
  Incidence of Adverse Events Related to Study Drug: 0
  Incidence of Adverse Events: Any Adverse Event: 3 (30%)
  Incidence of Adverse Events: Atrial fibrillation: 1 (10%)
  Incidence of Adverse Events: Atrial flutter: 1 (10%)
  Incidence of Adverse Events: Atrial tachycardia: 0
  Incidence of Adverse Events: Bradycardia: 0
  Incidence of Adverse Events: Cardiac Disorders: 2 (20%)
  Incidence of Adverse Events: Chest pain/tightness: 0
  Incidence of Adverse Events: Conduction disorders: 0
  Incidence of Adverse Events: General Disorders: 0
  Incidence of Adverse Events: Groin pain/swelling: 0
0.25 μg/kg
  Diastolic BP Change from Baseline Post-treatment: 5.2 ± 9.7 mmHg
  Diastolic BP Change from Baseline Treatment: 2.5 ± 8.1 mmHg
  Systolic BP Change from Baseline Post-treatment: 5.8 ± 9.5 mmHg
  Systolic BP Change from Baseline Treatment: 8.8 ± 8.2 mmHg
1.0 μg/kg (n = 10)
  Adverse Events Related to Study Drug: Cardiac Disorders (all): 1 (10%)
  Adverse Events Related to Study Drug: General Disorders (all): 0
  Incidence of Adverse Events Related to Study Drug: 1 (10%)
  Incidence of Adverse Events: Any Adverse Event: 6 (60%)
  Incidence of Adverse Events: Atrial fibrillation: 0
  Incidence of Adverse Events: Atrial flutter: 1 (10%)
  Incidence of Adverse Events: Atrial tachycardia: 0
  Incidence of Adverse Events: Bradycardia: 0
  Incidence of Adverse Events: Cardiac Disorders: 1 (10%)
  Incidence of Adverse Events: Chest pain/tightness: 0
  Incidence of Adverse Events: Conduction disorders: 0
  Incidence of Adverse Events: General Disorders: 1 (10%)
  Incidence of Adverse Events: Groin pain/swelling: 1 (10%)
1.0 μg/kg
  Diastolic BP Change from Baseline Post-treatment: 1.0 ± 5.6 mmHg
  Diastolic BP Change from Baseline Treatment: 3.3 ± 9.3 mmHg
  Systolic BP Change from Baseline Post-treatment: 1.4 ± 21.5 mmHg
  Systolic BP Change from Baseline Treatment: −0.1 ± 18.0 mmHg
2.5 μg/kg (n = 8)
  Adverse Events Related to Study Drug: Cardiac Disorders (all): 0
  Adverse Events Related to Study Drug: General Disorders (all): 0
  Incidence of Adverse Events Related to Study Drug: 0
  Incidence of Adverse Events: Any Adverse Event: 3 (38%)
  Incidence of Adverse Events: Atrial fibrillation: 1 (13%)
  Incidence of Adverse Events: Atrial flutter: 0
  Incidence of Adverse Events: Atrial tachycardia: 0
  Incidence of Adverse Events: Bradycardia: 0
  Incidence of Adverse Events: Cardiac Disorders: 1 (13%)
  Incidence of Adverse Events: Chest pain/tightness: 1 (13%)
  Incidence of Adverse Events: Conduction disorders: 0
  Incidence of Adverse Events: General Disorders: 2 (25%)
  Incidence of Adverse Events: Groin pain/swelling: 0
2.5 μg/kg
  Diastolic BP Change from Baseline Post-treatment: −1.6 ± 9.5 mmHg
  Diastolic BP Change from Baseline Treatment: 0.0 ± 8.4 mmHg
  Systolic BP Change from Baseline Post-treatment: 0.6 ± 9.0 mmHg
  Systolic BP Change from Baseline Treatment: 1.0 ± 6.2 mmHg
4.0 μg/kg (n = 10)
  Adverse Events Related to Study Drug: Cardiac Disorders (all): 2 (20%)
  Adverse Events Related to Study Drug: General Disorders (all): 0
  Incidence of Adverse Events Related to Study Drug: 2 (20%)
  Incidence of Adverse Events: Any Adverse Event: 2 (20%)
  Incidence of Adverse Events: Atrial fibrillation: 2 (20%)
  Incidence of Adverse Events: Atrial flutter: 0
  Incidence of Adverse Events: Atrial tachycardia: 0
  Incidence of Adverse Events: Bradycardia: 0
  Incidence of Adverse Events: Cardiac Disorders: 2 (20%)
  Incidence of Adverse Events: Chest pain/tightness: 0
  Incidence of Adverse Events: Conduction disorders: 0
  Incidence of Adverse Events: General Disorders: 0
  Incidence of Adverse Events: Groin pain/swelling: 0
4.0 μg/kg
  Diastolic BP Change from Baseline Post-treatment: 0.6 ± 10.5 mmHg
  Diastolic BP Change from Baseline Treatment: 3.3 ± 8.4 mmHg
  Systolic BP Change from Baseline Post-treatment: 5.2 ± 10.2 mmHg
  Systolic BP Change from Baseline Treatment: 3.8 ± 8.4 mmHg
10.0 μg/kg (n = 12)
  Adverse Events Related to Study Drug: Cardiac Disorders (all): 6 (50%)
  Adverse Events Related to Study Drug: General Disorders (all): 1 (8%)
  Incidence of Adverse Events Related to Study Drug: 7 (58%)
  Incidence of Adverse Events: Any Adverse Event: 8 (67%)
  Incidence of Adverse Events: Atrial fibrillation: 3 (25%)
  Incidence of Adverse Events: Atrial flutter: 1 (8%)
  Incidence of Adverse Events: Atrial tachycardia: 0
  Incidence of Adverse Events: Bradycardia: 1 (8%)
  Incidence of Adverse Events: Cardiac Disorders: 6 (50%)
  Incidence of Adverse Events: Chest pain/tightness: 1 (8%)
  Incidence of Adverse Events: Conduction disorders: 1 (8%)
  Incidence of Adverse Events: General Disorders: 2 (17%)
  Incidence of Adverse Events: Groin pain/swelling: 0
10.0 μg/kg group
  patients with severe adverse events: 1 patient
10.0 μg/kg
  Diastolic BP Change from Baseline Post-treatment: −7.2 ± 16.8 mmHg
  Diastolic BP Change from Baseline Treatment: −3.2 ± 11.2 mmHg
  Systolic BP Change from Baseline Post-treatment: −12.6 ± 20.4 mmHg
  Systolic BP Change from Baseline Treatment: −3.2 ± 13.5 mmHg
25.0 μg/kg (n = 3)
  Adverse Events Related to Study Drug: Cardiac Disorders (all): 2 (66.7%)
  Adverse Events Related to Study Drug: General Disorders (all): 3 (100%)
  Incidence of Adverse Events Related to Study Drug: 3 (100%)
  Incidence of Adverse Events: Any Adverse Event: 3 (100%)
  Incidence of Adverse Events: Atrial fibrillation: 1 (33%)
  Incidence of Adverse Events: Atrial flutter: 0
  Incidence of Adverse Events: Atrial tachycardia: 1 (33%)
  Incidence of Adverse Events: Bradycardia: 1 (33%)
  Incidence of Adverse Events: Cardiac Disorders: 2 (66.7%)
  Incidence of Adverse Events: Chest pain/tightness: 3 (100%)
  Incidence of Adverse Events: Conduction disorders: 0
  Incidence of Adverse Events: General Disorders: 3 (100%)
  Incidence of Adverse Events: Groin pain/swelling: 0
25.0 μg/kg group
  patients with severe adverse events: 2 patients
25.0 μg/kg group, chest pain, severe chest pain, chest tightness and atrial fibrillation
  patients who did not complete study drug infusion due to adverse events: Three patients
25.0 μg/kg
  Diastolic BP Change from Baseline Post-treatment: 1.0 ± 8.0 mmHg
  Diastolic BP Change from Baseline Treatment: 7.5 ± 2.1 mmHg
  Systolic BP Change from Baseline Post-treatment: 6.7 ± 8.1 mmHg
  Systolic BP Change from Baseline Treatment: 23.0 ± 2.8 mmHg
Any patient during the study
  changes in blood pressure or clinical laboratory values: no clinically significant changes
